Consider 18 molecules from patent US20240238281A1, “PIPERAZINE DERIVATIVES AND APPLICATION THEREOF” (priority 2021, published 2024).

What all share (assay type): cell-based
One test concerns the target T1, MC4R (Homo sapiens, UniProt P32245).
T1 construct: expressed in transfected cells
The experiment in a line: In vitro activity of MCR receptors, intracellular cAMP signal (HEK293T/MCR cell line), MC4R. As to the method:
(§1) Test purpose: to evaluate the agonistic effect of the compound on MCRs by detecting intracellular cAMP signal changes.
(§2) Cells were resuspended with 1×PBS+500 μM IBMX. 10 μL of the cell suspension was added into a 384-well plate to be tested, and the cell concentration was adjusted to 1×10^4 cells per well for later use. A pre-prepared solution of the compound to be tested was added, and dimethyl sulfoxide of the same volume was added to blank control wells. The test plate was centrifuged at 300 rpm for 1 minute, incubated at 37° C. for 30 minutes, and added with 5 μL of cAMP-d2 and 5 μL of a CAMP-cry antibody detection reagent. The test plate was centrifuged at 300 rpm for 1 minute, and incubated at room temperature for 60 minutes. The test plate was placed in the Envision multifunctional microplate reader for reading, with a detection wavelength of 665/615 nm.

Another test has as its target T2, MC1R (Homo sapiens, UniProt Q01726).
T2 construct: expressed in transfected cells
As to the kind of experiment: In vitro activity of MCR receptors, intracellular cAMP signal (HEK293T/MCR cell line), MC1R. As to the method: as §1
as §2, with “minutes.” for “minutes. The test plate was placed in the Envision multifunctional microplate reader for reading, with a detection wavelength of 665/615 nm.”

A further test has as its target T3, MC3R (Homo sapiens, UniProt P41968).
T3 construct: expressed in transfected cells
As to the kind of experiment: In vitro activity of MCR receptors, intracellular cAMP signal (HEK293T/MCR cell line), MC3R. As to the method: as §1
as §2, with “minutes.” for “minutes. The test plate was placed in the Envision multifunctional microplate reader for reading, with a detection wavelength of 665/615 nm.”

In another test the target is T4, MC5R (Homo sapiens, UniProt P33032).
T4 construct: expressed in transfected cells
As to the kind of experiment: In vitro activity of MCR receptors, intracellular cAMP signal (HEK293T/MCR cell line), MC5R. As to the method:
as §1, §2

The mark [1] stands for this setting: cAMP, HEK293T/MCR cell line, read-out: MC4R EC50.
Setting [2] is: cAMP, HEK293T/MCR cell line, read-out: MC1R EC50.
The mark [3] stands for this setting: cAMP, HEK293T/MCR cell line, read-out: MC5R EC50.
Where [4] appears, read: cAMP, HEK293T/MCR cell line, read-out: MC3R EC50.

Counter-ions that a name gives are not always drawn. Like-named read-outs stand apart in the source and are kept apart here.

T4 sequence (P33032 whole entry): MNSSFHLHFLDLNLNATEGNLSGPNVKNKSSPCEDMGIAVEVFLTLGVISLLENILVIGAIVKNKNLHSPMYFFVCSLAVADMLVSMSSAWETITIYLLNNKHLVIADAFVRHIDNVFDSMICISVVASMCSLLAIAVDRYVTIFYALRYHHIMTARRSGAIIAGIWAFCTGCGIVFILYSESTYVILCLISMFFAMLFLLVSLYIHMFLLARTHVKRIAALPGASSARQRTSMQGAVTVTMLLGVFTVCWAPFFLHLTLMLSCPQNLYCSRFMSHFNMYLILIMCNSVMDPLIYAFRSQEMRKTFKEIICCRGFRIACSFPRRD
T1 sequence (P32245 whole entry): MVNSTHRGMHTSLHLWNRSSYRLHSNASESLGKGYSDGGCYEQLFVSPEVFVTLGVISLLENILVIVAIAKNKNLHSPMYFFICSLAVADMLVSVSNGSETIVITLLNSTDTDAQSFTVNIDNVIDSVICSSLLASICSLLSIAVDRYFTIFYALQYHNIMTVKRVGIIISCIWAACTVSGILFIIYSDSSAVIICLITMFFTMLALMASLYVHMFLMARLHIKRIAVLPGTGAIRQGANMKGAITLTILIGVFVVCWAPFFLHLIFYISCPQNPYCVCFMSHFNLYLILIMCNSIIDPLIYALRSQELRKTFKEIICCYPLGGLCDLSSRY
T2 sequence (Q01726 whole entry): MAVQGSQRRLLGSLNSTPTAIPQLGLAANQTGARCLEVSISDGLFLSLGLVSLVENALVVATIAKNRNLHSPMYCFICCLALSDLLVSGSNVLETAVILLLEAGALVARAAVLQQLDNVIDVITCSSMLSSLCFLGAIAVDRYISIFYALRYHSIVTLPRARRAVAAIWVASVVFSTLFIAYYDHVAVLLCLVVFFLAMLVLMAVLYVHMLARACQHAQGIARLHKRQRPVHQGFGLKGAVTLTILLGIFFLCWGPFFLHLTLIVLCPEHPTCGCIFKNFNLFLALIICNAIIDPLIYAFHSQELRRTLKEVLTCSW
T3 sequence (P41968 whole entry): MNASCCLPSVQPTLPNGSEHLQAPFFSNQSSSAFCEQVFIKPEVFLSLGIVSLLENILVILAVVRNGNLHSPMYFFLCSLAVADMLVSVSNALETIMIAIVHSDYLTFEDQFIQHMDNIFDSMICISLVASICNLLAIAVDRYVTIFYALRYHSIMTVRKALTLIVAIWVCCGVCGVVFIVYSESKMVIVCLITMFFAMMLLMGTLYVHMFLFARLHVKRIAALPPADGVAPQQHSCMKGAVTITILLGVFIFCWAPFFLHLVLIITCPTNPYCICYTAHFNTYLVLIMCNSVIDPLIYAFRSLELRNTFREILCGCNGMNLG

One may read the EC50 as the concentration needed to bring the measured effect to its halfway point. On to `C[C@@H]1CN(C(=O)C2CN([C@H]3CCO[C@@H](C)C3)C[C@H]2c2ccc(F)cc2F)C[C@H](C)N1c1ccc(F)cc1` (stereo partly drawn) [Compound 22d], for which the EC50 on MC4R (setting [1]) was 1.9 nM; on MC1R (setting [2]), 106 nM; at MC3R it was 696 nM; at MC5R (setting [3]), over 10000 nM.
As for `C[C@@H]1CN(C(=O)[C@@H]2CN(C3CCOCC3)C[C@H]2c2ccc(F)cc2F)C[C@H](C)N1c1ccc(Cl)cc1` [Compound 15], the EC50 on MC4R (setting [1]) was 3 nM; at MC1R, 580 nM; on MC3R, 574 nM; on MC5R (setting [3]), over 10000 nM.
With `C[C@@H]1CN(C(=O)[C@@H]2CN(C3CCCCC3)C[C@H]2c2ccc(F)cc2F)C[C@H](C)N1c1ccc(F)cc1` [Compound 18], the concentration for a half-maximal effect (EC50) at MC4R (setting [1]) is 4 nM; at MC1R (setting [2]) it was 29 nM; on MC3R, 201 nM; on MC5R (setting [3]), 1370 nM.
On to `CC1CC(N2CC(C(=O)N3C[C@@H](C)N(c4ccc(F)cc4)[C@@H](C)C3)C(c3ccc(F)cc3F)C2)CCO1` (single isomer, unassigned) [Compound 22a], for which the EC50 was 0.03 nM at MC4R (setting [1]), 790 nM at MC1R (setting [2]), 265 nM on MC3R and over 10000 nM on MC5R (setting [3]).
In the same order, the values of `C[C@@H]1CN(C(=O)[C@@H]2CN(C3CCC3)C[C@H]2c2ccc(F)cc2F)C[C@H](C)N1c1ccc(F)cc1` [Compound 17] are 6.7 nM, 55 nM, 1100 nM and 8150 nM.
Turning to `C[C@@H]1CN(C(=O)C2CN(C3CCOC3)CC2c2ccc(F)cc2F)C[C@H](C)N1c1ccc(F)cc1` (single isomer, unassigned) [Compound 20a], the EC50 at MC4R (setting [1]) is 26 nM; at MC1R (setting [2]), 2010 nM; at MC3R, 3130 nM; at MC5R (setting [3]), over 10000 nM.
Take `C[C@@H]1CN(C(=O)[C@@H]2CN(C(C)(C)C)C[C@H]2c2ccc(F)cc2F)C[C@H](C)N1c1ccccc1` [Hydrochloride salt of compound 6]: the concentration giving a half-maximal response (EC50) at MC4R (setting [1]) is 24 nM; at MC1R (setting [2]), 80 nM; on MC3R, 2030 nM; at MC5R (setting [3]), 1150 nM.
The matching figures for `C[C@@H]1CN(C(=O)C2CN(C3CCOC(C)(C)C3)CC2c2ccc(F)cc2F)C[C@H](C)N1c1ccc(F)cc1` (single isomer, unassigned) [Compound 21b]: 5.3 nM, 492 nM, 268 nM and over 10000 nM.
As for `C[C@@H]1CN(C(=O)[C@@H]2CN(C3CCOCC3)C[C@H]2c2ccc(F)cc2F)C[C@H](C)N1c1ccc(F)c(F)c1` [Compound 14], the concentration for a half-maximal effect (EC50) on MC4R (setting [1]) was 10 nM; on MC1R (setting [2]), 575 nM; on MC3R, 672 nM; on MC5R (setting [3]), 919 nM.
Take `CCC(C)(C)N1CC(C(=O)N2C[C@@H](C)N(c3ccc(F)cc3)[C@@H](C)C2)[C@H](c2ccc(F)cc2F)C1` (stereo partly drawn) [Compound 23]: the EC50 is 4 nM on MC4R (setting [1]), 58 nM at MC1R (setting [2]), 316 nM at MC3R and 1950 nM on MC5R (setting [3]).
Take `C[C@@H]1CN(C(=O)C2CN(C(C)(C)C)CC2c2ccc(Cl)cc2)C[C@H](C)N1c1ccc(F)cc1` (single isomer, unassigned) [Compound 9]: the EC50 was 16 nM at MC4R, 45 nM on MC1R, 1760 nM at MC3R (setting [4]) and 402 nM at MC5R.
Consider `C[C@@H]1CN(C(=O)C2CN(C3CCOCC3)CC2c2ccc(Cl)cc2)C[C@H](C)N1c1ccc(F)cc1` (single isomer, unassigned) [Compound 16], for which the EC50 was 6 nM at MC4R, 167 nM on MC1R, 254 nM on MC3R (setting [4]) and 1170 nM at MC5R.
`C[C@@H]1CN(C(=O)C2CN(C(C)(C)C)CC2c2ccc(F)cc2F)C[C@H](C)N1c1ccc(F)cc1` (single isomer, unassigned) [Compound 3]: the 50% effective concentration (EC50) at MC4R was 30 nM; on MC1R, 300 nM; on MC3R it was 2400 nM; on MC5R, over 10000 nM.
Consider `C[C@@H]1CN(C(=O)C2CN(c3cccnn3)CC2c2ccc(F)cc2F)C[C@H](C)N1c1ccc(F)cc1` (single isomer, unassigned) [Compound 11], for which the 50% effective concentration (EC50) at MC4R turned out to be 0.4 nM; at MC1R it was 82 nM; on MC3R (setting [4]), 26 nM; on MC5R, 2130 nM.
As for `C[C@@H]1CN(C(=O)C2CN(c3ccc(C#N)cn3)CC2c2ccc(F)cc2F)C[C@H](C)N1c1ccc(F)cc1` (single isomer, unassigned) [Compound 12], the EC50 stood at 0.2 nM on MC4R, 234 nM on MC1R, 5 nM on MC3R (setting [4]) and 740 nM on MC5R.
`C[C@@H]1CN(C(=O)C2CN(C(C)(C)C)CC2c2ccc(F)cc2F)C[C@H](C)N1c1ccc(C(F)(F)F)cc1` (single isomer, unassigned) [Compound 5]: the 50% effective concentration (EC50) is 35 nM at MC4R, 882 nM at MC1R, 3500 nM on MC3R (setting [4]) and over 10000 nM at MC5R.
As to `C[C@@H]1CN(C(=O)[C@@H]2CN(C(C)(C)C)C[C@H]2c2ccc(F)cc2F)C[C@H](C)N1c1ccccn1` [Compound 1], the concentration for a half-maximal effect (EC50) at MC4R was 148 nM; at MC1R, 2330 nM; at MC3R (setting [4]) it was over 10000 nM; on MC5R, over 10000 nM.
Take `C[C@@H]1CN(C(=O)C2CN(c3ccccc3)CC2c2ccc(F)cc2F)C[C@H](C)N1c1ccc(F)cc1` (single isomer, unassigned) [Compound 13]: the concentration giving a half-maximal response (EC50) on MC4R is 50 nM; on MC1R, over 10000 nM; at MC3R (setting [4]), 3300 nM; on MC5R, over 10000 nM.
